Measurements taken from US20250177367A1, “COMBINATION THERAPIES FOR MODULATION OF LIPID PRODUCTION” (Ohio State Innovation Foundation, priority 2022, published 2025).
“Also recorded” adds a separate entry of the source.

Columns and labels:
[1] = system: H1299 and U87 cells; assay: Ammonia, glutamate and α-KG levels after GPNA or CB-839; type: cell-based; conditions: for levels of glutamate, ammonia, and α-KG in cells and in cell culture media: GPNA 5 mM or CB-839 100 nM, 12 hr; for glutamine consumption: H1299 and U87 cells
Method: The results are presented as mean±SEM (n=3). H1299 or U87 cells were cultured in RMPI 1640 or DMEM medium supplemented with 5% FBS for 24 hr. Cells then were washed with PBS once and treated with/without GPNA (5 mM) or CB-839 (100 nM) in the presence of glutamine (4 mM) and glucose (5 mM) under the fresh serum-free RMPI 1640 or DMEM medium for 12 hr before analysis. Cell culture conditions prior to treatment are the same for the subsequent panels unless otherwise stated.
Analysis of Metabolites in Cell Culture Medium. Metabolite levels in culture medium, including glucose, glutamine, lactate, glutamate, and NH4+, were measured using the Nova Bioprofile 100 Plus Bioanalyzer (Nova Biomedical). H1299 (4×105) or U87 (3×105) cells were seeded in 60 mm dish for 24 hr. After the cells were washed with PBS, they were switched to 2.5 ml serum-free medium with glucose (5 mM) and glutamine (4 mM) for 12 hr. The culture or control media (without cultured cells) were centrifuged at 12,000 rpm for 1 min and run on the bioanalyzer. Cell numbers were determined by using a hemocytometer after trypan blue staining. Consumption of glucose and glutamine or production of lactate, glutamate, and NH4+ under each experimental condition was calculated by subtracting their levels in control medium and normalizing to cell numbers.
(§1) Measures of Ammonia Levels in Tissues, Cells and bound to SCAP. To measure ammonia levels in tumors and normal tissues, 10 mg of tissues were collected and lysed through homogenization on ice in the ammonia assay buffer (100 l) from the commercial kit. The lysates were centrifuged at 20,000×g for 5 min at 4° C. and the ammonia levels in the supernatants were measured by the ammonia assay kit following the manufacturer's instructions (#ab83360, Abcam). For measurement of SCAP-bound ammonia, a total of 1.3×10^7 HEK293T cells was seeded in 15 cm dishes for 24 hr. The cells were transfected with GFP, GFP-SCAP wild-type, or D428A mutant together with myc-Insig1 plasmids for 24 hr, and then washed with PBS, followed by addition of fresh DMEM medium containing glucose (5 mM) and NH4Cl (4 mM) for 2 hr in the absence of glutamine. […]

[2] = system: H1299 cells-derived xenograft; assay: H1299-derived xenograft mouse model treated with CB-839; type: in vivo, mice; conditions: CB-839 30 mg/kg, i.p., twice per day for 3 days
Method: The treatment started when the tumor size reached 200 mm^3. […] Scale bars, 50 m. The expression levels were quantified by using ImageJ to analyze 4 images per tumor and 3 tumors in each group.
as §1

[3] = system: SREBP-1/2 cleavage; assay: Western blot of SREBP cleavage and FASN/SCD1 expression in GBM cells; type: cell-based, human; conditions: for pimozide-stimulated SREBP-1 activation, FASN/SCD1 and ASCT2 expression: with pimozide 5 μM, 24 hr, GBM30, U373 or U251
Method: P, precursor of SREBP; N, N-terminus of SREBP-1. C, C-terminus of SREBP-2.
4 mM glutamine and […] pyruvate.
(§2) Western Blot. Cells were lysed with RIPA buffer containing a protease inhibitor cocktail and phosphatase inhibitors. The proteins were separated on 12% SDS-PAGE, and transferred onto an ECL nitrocellulose membrane (#1620112, Bio-Rad). After blocking for 1.5 hr in 5% non-fat dried milk diluted by Tris-buffered saline containing 0.1% Tween 20, the membranes were incubated with various primary antibodies, followed by appropriate secondary antibodies conjugated to horseradish peroxidase.

[4] = system: SREBP activation; assay: Western blot of GBM30 cells treated with CB-839 with glutamine, glutamate or NH4Cl; type: cell-based, human; conditions: 12 hr
Method: as §2

[5] = system: U251 cells; assay: Confocal imaging of mitochondria and ROS (MitoTracker / CellROX Deep Red); type: cell-based; conditions: GSH 3 mM
Method: ROS levels were quantified in more than 100 cells (mean±SEM). Sp<0.0001. Scale bar, 10 μm.
DON (10 μM) or CB-839 (I00 nM) in combination as in (A) in the presence or absence of PA (palmitate, 20 μM) and OA (oleic acid, 20 μM) and cholesterol (3 μg/ml) for 24 hr.

[6] = system: U251 cells; assay: Micrographs of U251 cell growth; type: cell-based; conditions: GSH 3 mM, 48 hr
Method: DON (10 μM) or CB-839 (100 nM) alone or in combination as in (A) in the presence or absence of GSH (3 mM) for 48 hr.
Micrographs show the growth of U251 cells treated with/without pimozide (2, 3 μM), perphenazine (3, 5 μM), GPNA (1 mM), or CB-839 (100 nM). Cells were cultured in 5% FBS full medium for 24 hr. Cells were then washed with PBS twice and treated in 1% FBS with the presence of 5 mM Glucose, 4 mM Glutamine and 1 mM Pyruvate in fresh serum-free medium for 48 hr. Scale bar, 100 μm.

[7] = system: SREBP-1 and -2 cleavage; assay: SREBP activation by metabolites in H1299 or U87 cells (western blot, IF); type: cell-based; conditions: for SREBP-1 translocation into the nucleus: in the presence of glucose, without glutamine, 12 hr
Method: FIG. 1C show the western blot analysis of whole lysates from H1299 or U87 cells after NH4Cl stimulation at the indicated doses for 12 hr. in the presence of glucose (5 mM) under serum-free culture conditions.
Nuclei were stained with DAPI (blue). Scale bars, 10 m. The nuclear intensity of SREBP-1 was quantified over 30 cells by ImageJ (mean±SEM) and shown below. Significance was determined by unpaired Student's t test. *p<0.05, ^sp<0.001, #p<0.0001; N.S. not significant.
as §2, with “The proteins were separated on 12% SDS-PAGE, and transferred onto an ECL nitrocellulose membrane (#1620112, Bio-Rad).” left out
Immunofluorescence. Cells grown on coverslips were washed with PBS twice and fixed with 4% formaldehyde for 15 min, then permeabilized with 0.1% Triton X-100/PBS for 5 min and blocked by 3% bovine serum albumin for 30 min at room temperature. […] Cells were washed three times with PBS in a dark chamber.

[8] = system: ASCT2; assay: ASCT2 expression (western blot of membrane extracts, immunofluorescence); type: cell-based, human; conditions: pimozide 5 μM with cholesterol 3 μg/ml, 24 hr
Source text: Transferring receptor-1(CD71), an integral membrane protein that mediates the uptake of transferrin-iron complexes, was used as a membrane loading control for ASCT2. […] Nuclei were stained with DAPI (blue).

[9] = system: normal human astrocytes (NHA); assay: Effect of PMZ on normal human astrocytes; type: cell-based; conditions: doses up to 10 μM, 6 days
Method: Statistical significance was analyzed by one-way ANOVA.

[10] = system: GBM30-derived xenograft; assay: GBM30-derived flank xenograft model; conditions: 60 mg/kg dose
Method: (§3) Mice were implanted with 3×10^6 GBM30 cells in flank. When tumor volume reached to 80 mm^3, pimozide (15, 30, 60 mg/kg/day) or vehicles were administered to mice via intraperitoneal injection for 14 days.
(§4) GBM30 cells were implanted in mice to form tumor same as FIG. 12A. Mice were started treatment when tumor volume reached to ˜80 mm^3 by pimozide (15 mg/kg/day) and fatostatin (25 mg/kg/day) alone or combination for 16 days. The tumors were isolated from mice at day 14 post-treatment and imaged. Data are shown as mean±SD (n=6).
(§5) Data are shown as mean±SD(n=6). Significance was determined by one-way ANOVA with Dunnett's multiple comparisons adjustment. *p<0.002. Tumor diameter was measured using vernier caliper and calculated as V=L×S×S/2 (S refers to short diameter, L means long diameter, V is tumor volume).
(§6) Mice were implanted with 3×10^6 GBM30 cells in flank. When tumor volume reached to ˜80 mm^3, pimozide (15 mg/kg/day), GPNA (50 mg/kg/day), DON (0.2 mg/kg/day), or CB-839 (25 mg/kg/day) alone or in combination were administered to mice via intraperitoneal injection for 14 days.
(§7) Data are shown as mean±SEM (n=6). Significance was determined by one-way ANOVA with Dunnett's multiple comparisons adjustment. *p<0.002.

[11] = system: GBM30-derived xenograft; conditions: mouse, in vivo
Method: as §3, §4, §5, §6, §7

Compound: O=C(Cc1cccc(OC(F)(F)F)c1)Nc1ccc(CCCCc2nnc(NC(=O)Cc3ccccn3)s2)nn1 [CB-839, telaglenastat]
- levels of glutamate, ammonia, and α-KG in cells and in cell culture media [1]: dramatically reduced
- glutamine consumption [1]: significant reduction
- ammonia levels in tumor tissues [2]: reduction
- SREBP-1 levels in tumors (IHC) ([2]; vs vehicle): significantly reduced
- pimozide-stimulated SREBP-1 activation, FASN/SCD1 and ASCT2 expression [3]: completely abolished
- SREBP activation ([4]; CB-839 200 nM): SREBP activation inhibited by CB-839

Compound: Cl.N[C@@H](CCC(=O)Nc1ccc([N+](=O)[O-])cc1)C(=O)O [GPNA, gamma-L-Glutamyl-p-nitroanilide Hydrochloride]
- levels of glutamate, ammonia, and α-KG in cells and in cell culture media [1]: dramatically reduced
- glutamine consumption [1]: significant reduction
- pimozide-stimulated SREBP-1 activation, FASN/SCD1 and ASCT2 expression [3]: completely abolished

Compound: N[C@@H](CCC(=O)N[C@@H](CS)C(=O)NCC(=O)O)C(=O)O [GSH]
- combination treatment-elevated ROS level in mitochondria [5]: reduced the combination treatment-elevated ROS level in mitochondria
- combination-induced cell death [6]: dramatically rescued the combination-induced cell death

Compound: N [ammonia]
- restoration of pimozide-stimulated SREBP-1 activation, FASN/SCD1 and ASCT2 expression ([3]; NH3·H2O 4 mM, after glutamine absence, GPNA or CB-839): fully restored
- restoration of SREBP activation and FASN/SCD1 expression inhibited by CB-839 ([4]; 4 mM): strongly restore SREBP activation
- SREBP-1 and -2 cleavage, FASN and SCD1 expression ([7]; in the presence of glucose 5 mM, NH4Cl, serum-free): induced SREBP-1 and -2 cleavage; also recorded: dose- and time-dependent
- SREBP-1 translocation into the nucleus [7]: markedly stimulated SREBP-1 translocation into the nucleus

Compound: CC(C)CCC[C@@H](C)[C@H]1CC[C@H]2[C@@H]3CC=C4C[C@@H](O)CC[C@]4(C)[C@H]3CC[C@]12C [cholesterol]
- pimozide treatment-elevated ASCT2 expression [8]: suppressed

Compound: N[C@@H](CCC(=O)O)C(=O)[O-].O.[Na+] [glutamate, L-Glutamic acid monosodium salt monohydrate]
- SREBP-1 translocation into the nucleus [7]: failed to do so

Compound: C[C@H](O)C(=O)[O-].[Na+] [lactate, sodium L-lactate]
- SREBP-1 translocation into the nucleus [7]: failed to do so

Compound: O=c1[nH]c2ccccc2n1C1CCN(CCCC(c2ccc(F)cc2)c2ccc(F)cc2)CC1 [pimozide]
- toxic effects on normal human astrocytes [9]: no toxic effects
- time of treatment until mice died [10]: 6 to 8 days
- toxicity in mice [11]: toxic

Compound: O=C([O-])CCC(=O)C(=O)[O-].[Na+].[Na+] [α-KG, α-Ketoglutaric acid sodium salt]
- SREBP-1 translocation into the nucleus [7]: failed to do so
